Results on 81 compounds are retold here after publication PMC3242765, “Inhibitors of Alphavirus Entry and Replication Identified with a Stable Chikungunya Replicon Cell Line and Virus-Based Assays” (PLoS ONE, 2011).

This assay deals with SFV-Rluc. As to conditions: for % left (remaining SFV replication): Supplementary Table 2, moderately active compounds (25 - 60% remaining), primary screen at 50 µM; for SFV replication % left: primary screening of chemical libraries, compounds tested at 50 µM.

Structures are written as SMILES.

Turning to `C#CCN(C)[C@H](C)Cc1ccccc1.Cl` [PC-055], the “% left (remaining SFV replication)” value came out at 57.6% and the “SFV replication % left” value is listed as 57.0%.
For the compound `Cc1ncc([N+](=O)[O-])n1CCO` [PC-121], the “SFV replication % left” value amounted to 69.2%.
With `C[C@@]12CCC[C@H]1[C@@H]1CC[C@H]3CCCC[C@]3(C)[C@H]1CC2` [PC-013], the “SFV replication % left” value is 53.0%.
Same read-out and setting: the same measure for `CCN(CC)c1ccc2cc(-c3nc4ccccc4n3C)c(=O)oc2c1` [NC-016]: 12.3%; for `CC(C(=O)[O-])c1cccc(Oc2ccccc2)c1.CC(C(=O)[O-])c1cccc(Oc2ccccc2)c1.[Ca+2]` (stereo not shown) [PC-080]: 87.6%.
On to `CCC(N)C(O)c1ccc(O)c(O)c1` (stereo not shown) [PC-076], for which the “SFV replication % left” value came to 126.8%.
For the compound `CCN(CC)CCOC(=O)c1ccc(N)cc1.Cl` [PC-167], the “SFV replication % left (surviving fraction, remaining percentage of SFV replication)” value is on record as 105.4%.
With `CCN(CC)CCCC(C)Nc1ccnc2cc(Cl)ccc12.O=P(O)(O)O.O=P(O)(O)O` (stereo not shown) [PC-044], the “SFV replication % left” value is recorded as 12.2%.
On the same count and under the same terms, the same measure for `O=C(O)[C@]1(O)C[C@@H](O)[C@@H](O)[C@H](O)C1` [NC-084]: 98.2%; for `O=C(O)c1ccc(O)c(O)c1` [NC-026]: 124.5%.
With `NCCCS(=O)(=O)O` [PC-090], the “SFV replication % left” value came to 118.7%.
As to `O=c1ccc2ccc(O)c(O)c2o1` [NC-112], the “SFV replication % left” value is 90.6%.
Same read-out and setting: the value for `Br.COC(=O)C1=CCCN(C)C1` [PC-016] was 83.6%.
Turning to `CCCCNc1ccc(C(=O)OCCN(C)C)cc1.Cl` [PC-215], the “SFV replication % left (surviving fraction, remaining percentage of SFV replication)” value was determined as 102.8%.
For the compound `CC(C)Cc1ccc(C(C)C(=O)O)cc1` (stereo not shown) [PC-099], the “SFV replication % left” value worked out at 92.8%.
Still for that read-out and setting: the value for `CN1C(=O)CN=C(c2ccccc2)c2cc(Cl)ccc21` [PC-060] was 73.6%; that for `O=C(O)Cc1ccccc1O` [NC-050] was 7.3%; that for `COc1ccc([C@@H]2CC(=O)c3c(O)cc(O[C@@H]4O[C@H](CO[C@@H]5O[C@@H](C)[C@H](O)[C@@H](O)[C@H]5O)[C@@H](O)[C@H](O)[C@H]4O)cc3O2)cc1O` [NC-046] was 77.7%.
For `COc1cc(OC)c2ccc(=O)oc2c1` [NC-128], the “SFV replication % left” value is on record as 67.4%.
On the same count and under the same terms, the same measure for `CCN(CC)C(C)CN1c2ccccc2Sc2ccccc21.Cl` (stereo not shown) [PC-074]: 20.1%; for `COc1cc2ccc(=O)oc2c(O)c1O` [NC-110]: 103.6%.
As for `O=C(OC[C@H]1OC(O)[C@@](O)(COC(=O)c2cc(O)c(O)c(O)c2)[C@@H]1O)c1cc(O)c(O)c(O)c1` (stereo partly shown) [NC-045], the “SFV replication % left” value turned out to be 14.7%.
Still for that read-out and setting: the value for `O=C(O)c1ccccc1O` [NC-092] was 69.1%; that for `CCC(CN(C)C)(CN(C)C)OC(=O)c1ccccc1.Cl` [PC-012] was 43.4%.
Take `CCOc1ccc(NC(C)=O)cc1` [PC-150]: the “SFV replication % left (surviving fraction, remaining percentage of SFV replication)” value was found to be 71.8%.
Take `CCC(C)NCC(O)c1ccc2c(c1)CCCC2` (stereo not shown) [PC-030]: the “SFV replication % left” value stood at 73.1%.
On the same count and under the same terms, the same measure for `O=c1cc(-c2ccccc2)oc2c1ccc1ccccc12` [NC-002]: 14.6%.
As to `CCCCNC(=O)c1ccc(Cl)cc1O` [PC-025], the “SFV replication % left” value was determined as 49.6%.
With `CCCCCCCCOC(=O)c1cc(O)c(O)c(O)c1` [NC-072], the “SFV replication % left” value was 134.4%.
The same measure, in the same setting: the same measure for `C=CC[C@]1(O)CC[C@H]2[C@@H]3CCC4=CCCC[C@@H]4[C@H]3CC[C@@]21C` [PC-009]: 37.2%.
Turning to `O=C1NC(=O)C(c2ccccc2)(c2ccccc2)N1` [PC-068], the “SFV replication % left” value is recorded as 66.3%.
On the same count and under the same terms, the same measure for `O=C(O)c1cc2cc(Br)cc(Br)c2oc1=O` [NC-125]: 67.4%; for `O=C(O)c1cc(-c2ccccc2)nc2ccccc12` [PC-048]: 65.1%.
In the case of `O=C(O)c1cc(O)c(O)c(O)c1` [NC-041], the “SFV replication % left” value is listed as 148.8%.
Still for that read-out and setting: the same measure for `CCN(CC)c1ccc2cc(C(=O)c3cccs3)c(=O)oc2c1` [NC-022]: 15.6%; for `O=C1C[C@@H](c2ccc(O)cc2)Oc2cc(O)cc(O)c21` [NC-069]: -0.0736%.
Still for that read-out and setting: the value for `CC(=O)c1ccc(O)cc1` [NC-049] was 29.4%; that for `O=C(O)Cc1ccc(O)cc1` [NC-052] was 103.6%.
With `Cl.Cl.OCCOCCN1CCN(C(c2ccccc2)c2ccc(Cl)cc2)CC1` (stereo not shown) [PC-097], the “SFV replication % left” value was 98.3%.
In the case of `CC(=O)Nc1ccc(O)cc1` [PC001-], the “SFV replication % left” value turned out to be 63.5%.
Regarding `Oc1ccc(C=Cc2cc(O)cc(O)c2)cc1` [NC-086], the “SFV replication % left” value turned out to be 103.4%.
Consider `COc1cc(C(=O)O)ccc1O` [NC-105], for which the “SFV replication % left” value is on record as 53.4%.
Still for that read-out and setting: the value for `CC(C)NCC(O)COc1ccc(CC(N)=O)cc1` (stereo not shown) [PC-017] was 44.2%.
Regarding `NC(=O)N/N=C/c1ccc([N+](=O)[O-])o1` [PC-132], the “SFV replication % left” value amounted to 83.7%.
With `N=C(N)NS(=O)(=O)c1ccc(N)cc1` [PC-196], the “SFV replication % left (surviving fraction, remaining percentage of SFV replication)” value was found to be 63.5%.
As to `Oc1cccc(O)c1` [PC-181], the “SFV replication % left (surviving fraction, remaining percentage of SFV replication)” value came to 67.1%.
In the case of `Cc1nnc(NS(=O)(=O)c2ccc(N)cc2)s1` [PC-200], the “SFV replication % left (surviving fraction, remaining percentage of SFV replication)” value amounted to 100.4%.
Turning to `O[C@H]1[C@H](O)[C@@H](O)[C@H](O)[C@@H](O)[C@H]1O` [PC-100], the “SFV replication % left” value is listed as 106.0%.
The same measure, in the same setting: the value for `C=CCOc1ccccc1OCC(O)CNC(C)C.Cl` (stereo not shown) [PC-142] was 92.4%.
With `Cc1ccc2oc(=O)ccc2c1` [NC-116], the “SFV replication % left” value worked out at 83.6%.
Same read-out and setting: the value for `O=c1cc(C(F)(F)F)c2cc3c4c(c2o1)CCCN4CCC3` [NC-131] was 52.6%; that for `CC(=O)c1cccc(O)c1` [NC-048] was 125.8%.
Consider `CC(C)[N+](C)(CCOC(=O)C1c2ccccc2Oc2ccccc21)C(C)C.[Br-]` [PC-171], for which the “SFV replication % left (surviving fraction, remaining percentage of SFV replication)” value came to 77.0%.
`CN1CCCCC1CCN1c2ccccc2Sc2ccc([S+](C)[O-])cc21` (stereo not shown) [NC-123]: the “SFV replication % left” value worked out at 131.1%.
With `CCOc1ccc(NC(C)=O)cc1` [PC-151], the “SFV replication % left (surviving fraction, remaining percentage of SFV replication)” value was found to be 80.6%.
On the same count and under the same terms, the value for `CCC1(c2ccccc2)C(=O)NC(=O)NC1=O` [PC-153] was 58.6%.
As to `COc1ccc(C(=O)Cc2c(CCN(C)C)cc3c(c2OC)OCO3)c(C(=O)O)c1OC` [PC-127], the “SFV replication % left” value amounted to 118.3%.
In the case of `CC(C)(CO)[C@@H](O)C(=O)NCCC(=O)[O-].CC(C)(CO)[C@@H](O)C(=O)NCCC(=O)[O-].[Ca+2]` [PC-035], the “SFV replication % left” value came to 67.9%.
For the compound `CC(CCc1ccccc1)NCC(O)c1ccc(O)c(C(N)=O)c1.Cl` (stereo not shown) [PC-105], the “SFV replication % left” value stood at 72.5%.
On the same count and under the same terms, the same measure for `COc1cc(C2Oc3cc([C@H]4Oc5cc(O)cc(O)c5C(=O)[C@@H]4O)ccc3OC2CO)ccc1O` (stereo partly shown) [NC-093]: 22.4%; for `C[C@]12CC[C@H](O)C[C@H]1CC[C@@H]1[C@@H]2CC[C@]2(C)[C@@H](C3=CC(=O)OC3)[C@@H](O)C[C@]12O` [NC-043]: 102.7%; for `CCOc1ccc2c(c1)C(C)=CC(C)(C)N2` [NC-038]: 96.4%.
In the case of `CCN(CC)C(C)C(=O)c1ccccc1.Cl` (stereo not shown) [PC-064], the “SFV replication % left” value is 47.1%.
Same read-out and setting: the same measure for `C[N+]1(C)[C@@H]2CC[C@H]1C[C@@H](OC(=O)C(CO)c1ccccc1)C2.O=[N+]([O-])[O-]` (stereo partly shown) [PC-018]: 46.8%; for `Oc1cccc(O)c1O` [NC-078]: 22.7%; for `O=c1cc(-c2ccc(O)c(O)c2)oc2cc(O)cc(O)c12` [NC-061]: 71.3%.
The same measure, in the same setting: the same measure for `COc1ccc2c(c1OC)C(=O)O[C@@H]2[C@H]1c2c(cc3c(c2OC)OCO3)CCN1C` [PC-137]: 103.5%.
As to `Cc1c(N)c(=O)n(-c2ccccc2)n1C` [PC-011], the “SFV replication % left” value turned out to be 51.6%.
On to `CCCOC(=O)c1cc(O)c(O)c(O)c1` [NC-076], for which the “SFV replication % left” value is 33.6%.
`CCCCNc1ccc(C(=O)OCCN(C)C)cc1.Cl` [PC-032]: the “% left (remaining SFV replication)” value stood at 45.2% and the “SFV replication % left” value was 45.4%.
As for `COc1ccc(-c2cc(=O)c3c(O)cc(O)cc3o2)cc1` [NC-001], the “SFV replication % left” value was 78.1%.
Still for that read-out and setting: the value for `Oc1cc(O)c2c(c1)O[C@H](c1ccc(O)c(O)c1)[C@H](O)[C@H]2c1c(O)cc(O)c2c1O[C@H](c1ccc(O)c(O)c1)[C@@H](O)C2` [NC-074] was 128.1%; that for `CC(C)NCC(O)c1ccccc1Cl.Cl.O` (stereo not shown) [PC-051] was 63.7%.
Same read-out and setting: the same measure for `Oc1cc(O)c2c(c1)OC(c1ccc(O)c(O)c1)C(O)C2O` (stereo not shown) [NC-060]: 136.3%.
For `Cc1ccc(C(C)C)c(O)c1` [NC-101], the “% left (remaining SFV replication)” value is 42.0% and the “SFV replication % left” value turned out to be 42.0%.
For the compound `O=C(O)c1ccccc1C(=O)O` [NC-073], the “SFV replication % left” value stood at 143.7%.
With `COc1cc(C=O)ccc1O` [NC-106], the “% left (remaining SFV replication)” value is on record as 47.9% and the “SFV replication % left” value turned out to be 47.9%.
For `Oc1cc(O)c2c(c1)O[C@H](c1ccc(O)c(O)c1)[C@H](O)C2` [NC-034], the “SFV replication % left” value turned out to be 97.1%.
For the compound `CN(Cc1cc(Br)cc(Br)c1N)C1CCCCC1.Cl` [PC-024], the “SFV replication % left” value worked out at 64.8%.
On the same count and under the same terms, the value for `C[C@H]1O[C@@H](O[C@H]2[C@@H](O)C[C@H](O[C@H]3[C@@H](O)C[C@H](O[C@H]4CC[C@@]5(C)[C@H](CC[C@@H]6[C@@H]5C[C@@H](O)[C@]5(C)[C@@H](C7=CC(=O)OC7)CC[C@]65O)C4)O[C@@H]3C)O[C@@H]2C)C[C@H](O)[C@@H]1O` [PC-065] was 141.9%; that for `NCC(O)c1cccc(O)c1` (stereo not shown) [PC-135] was 126.3%.
